Experimental data from patent US20090018134A1, “Compounds - 945” (AstraZeneca AB, priority 2007, published 2009).

target: T1, mTOR (Homo sapiens, UniProt P42345); test: In Vitro mTOR Kinase Assay (Echo), Test (a)(ii); format: biochemical; conditions: table of enzyme assay Test (a)(ii); read-out: Test (a)(ii) IC50
T1 construct: FLAG; made in house
In short: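 Enzyme: HEK293-expressed, FLAG-purified mTOR C-terminal fragment (aa 1362-2549). Rxn 2 h RT with biotinylated peptide, stopped with EDTA 50 mM/BSA/Tris pH 7.4. Detection: T389 phospho-antibody AlphaScreen, 680 nm excitation. IC50.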

T1 sequence (P42345 1362-2549): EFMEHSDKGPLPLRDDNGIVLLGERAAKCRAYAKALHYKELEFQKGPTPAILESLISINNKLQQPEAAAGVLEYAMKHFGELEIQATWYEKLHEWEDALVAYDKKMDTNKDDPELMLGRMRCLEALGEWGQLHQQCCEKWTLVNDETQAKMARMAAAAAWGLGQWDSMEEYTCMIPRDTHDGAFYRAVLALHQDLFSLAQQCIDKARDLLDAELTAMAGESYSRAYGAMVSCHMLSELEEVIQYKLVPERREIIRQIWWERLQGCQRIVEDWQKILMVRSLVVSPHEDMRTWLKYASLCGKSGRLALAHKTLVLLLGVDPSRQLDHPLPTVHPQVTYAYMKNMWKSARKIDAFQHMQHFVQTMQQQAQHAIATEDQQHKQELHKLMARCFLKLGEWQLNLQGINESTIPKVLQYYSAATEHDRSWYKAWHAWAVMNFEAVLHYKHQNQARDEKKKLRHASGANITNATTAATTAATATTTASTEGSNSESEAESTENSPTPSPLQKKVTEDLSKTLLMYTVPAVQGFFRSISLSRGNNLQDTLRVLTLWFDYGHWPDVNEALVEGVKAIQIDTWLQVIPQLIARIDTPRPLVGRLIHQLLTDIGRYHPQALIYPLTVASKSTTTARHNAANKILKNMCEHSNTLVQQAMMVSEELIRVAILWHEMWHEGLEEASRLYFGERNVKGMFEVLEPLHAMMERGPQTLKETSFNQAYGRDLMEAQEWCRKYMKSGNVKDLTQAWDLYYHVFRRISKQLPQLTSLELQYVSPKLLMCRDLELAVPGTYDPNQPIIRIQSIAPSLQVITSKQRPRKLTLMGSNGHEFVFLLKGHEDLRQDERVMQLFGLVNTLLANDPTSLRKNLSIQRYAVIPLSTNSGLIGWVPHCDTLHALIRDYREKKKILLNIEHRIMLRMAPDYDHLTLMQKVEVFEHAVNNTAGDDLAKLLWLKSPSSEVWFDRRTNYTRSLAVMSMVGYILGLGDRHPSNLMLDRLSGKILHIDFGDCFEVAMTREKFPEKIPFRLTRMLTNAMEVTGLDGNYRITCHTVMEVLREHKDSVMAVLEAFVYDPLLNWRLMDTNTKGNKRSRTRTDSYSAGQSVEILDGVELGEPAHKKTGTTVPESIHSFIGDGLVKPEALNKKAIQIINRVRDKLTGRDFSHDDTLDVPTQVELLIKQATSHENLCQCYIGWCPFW

Row | SMILES | IC50
1 | Cc1nn(C(F)F)c(C)c1S(=O)(=O)C1(c2cc(N3CCOC[C@@H]3C)nc(-c3ccc(NC(=O)NCCO)cc3)n2)CC1 [Example 75c, 1-[4-[4-[1-[1-(difluoromethyl)-3,5-dimethylpyrazol-4-yl]sulfonylcyclopropyl]-6-[(3S)-3-methylmorpholin-4-yl]pyrimidin-2-yl]phenyl]-3-(2-hydroxyethyl)urea] | 33.9 nM
2 | Cc1nn(C(F)F)c(C)c1S(=O)(=O)C1(c2cc(N3CCOC[C@@H]3C)nc(-c3ccc(NC(=O)NCC(F)F)cc3)n2)CC1 [Example 75d, 3-(2,2-difluoroethyl)-1-[4-[4-[1-[1-(difluoromethyl)-3,5-dimethylpyrazol-4-yl]sulfonylcyclopropyl]-6-[(3S)-3-methylmorpholin-4-yl]pyrimidin-2-yl]phenyl]urea] | 39.9 nM
3 | Cc1nn(C(F)F)c(C)c1S(=O)(=O)C1(c2cc(N3CCOC[C@@H]3C)nc(-c3ccc(NC(=O)NCCF)cc3)n2)CC1 [Example 75e, 1-[4-[4-[1-[1-(difluoromethyl)-3,5-dimethylpyrazol-4-yl]sulfonylcyclopropyl]-6-[(3S)-3-methylmorpholin-4-yl]pyrimidin-2-yl]phenyl]-3-(2-fluoroethyl)urea] | 37 nM
4 | Cc1nn(C(F)F)c(C)c1S(=O)(=O)C1(c2cc(N3CCOC[C@@H]3C)nc(-c3ccc(NC(=O)Nc4cnn(C)c4)cc3)n2)CC1 [Example 75f, 1-[4-[4-[1-[1-(difluoromethyl)-3,5-dimethylpyrazol-4-yl]sulfonylcyclopropyl]-6-[(3S)-3-methylmorpholin-4-yl]pyrimidin-2-yl]phenyl]-3-(1-methylpyrazol-4-yl)urea] | 60.8 nM
5 | C[C@H]1COCCN1c1cc(C2(S(=O)(=O)c3ccccc3Cl)CC2)nc(-c2ccc(NC(=O)NC3CC3)cc2)n1 [Example 76, 1-[4-[4-[1-(2-Chlorophenyl)sulfonylcyclopropyl]-6-[(3S)-3-methylmorpholin-4-yl]pyrimidin-2-yl]phenyl]-3-cyclopropylurea] | 6.87 nM
6 | CNC(=O)Nc1ccc(-c2nc(N3CCOC[C@@H]3C)cc(C3(S(=O)(=O)c4ccccc4Cl)CC3)n2)cc1 [Example 76a, 1-[4-[4-[1-(2-chlorophenyl)sulfonylcyclopropyl]-6-[(3S)-3-methylmorpholin-4-yl]pyrimidin-2-yl]phenyl]-3-methylurea] | 4.07 nM
7 | CCNC(=O)Nc1ccc(-c2nc(N3CCOC[C@@H]3C)cc(C3(S(=O)(=O)c4ccccc4Cl)CC3)n2)cc1 [Example 76b, 3-[4-[4-[1-(2-chlorophenyl)sulfonylcyclopropyl]-6-[(3S)-3-methylmorpholin-4-yl]pyrimidin-2-yl]phenyl]-1-ethylurea] | 7.19 nM
8 | C[C@H]1COCCN1c1cc(C2(S(=O)(=O)c3ccccc3Cl)CC2)nc(-c2ccc(NC(=O)NCCO)cc2)n1 [Example 76c, 1-[4-[4-[1-(2-chlorophenyl)sulfonylcyclopropyl]-6-[(3S)-3-methylmorpholin-4-yl]pyrimidin-2-yl]phenyl]-3-(2-hydroxyethyl)urea] | 3.19 nM
9 | C[C@H]1COCCN1c1cc(C2(S(=O)(=O)c3ccccc3Cl)CC2)nc(-c2ccc(NC(=O)NCC(F)F)cc2)n1 [Example 76d, 1-[4-[4-[1-(2-chlorophenyl)sulfonylcyclopropyl]-6-[(3S)-3-methylmorpholin-4-yl]pyrimidin-2-yl]phenyl]-3-(2,2-difluoroethyl)urea] | 9.24 nM
10 | C[C@H]1COCCN1c1cc(C2(S(=O)(=O)c3ccccc3Cl)CC2)nc(-c2ccc(NC(=O)NCCF)cc2)n1 [Example 76e, 1-[4-[4-[1-(2-chlorophenyl)sulfonylcyclopropyl]-6-[(3S)-3-methylmorpholin-4-yl]pyrimidin-2-yl]phenyl]-3-(2-fluoroethyl)urea] | 5.66 nM
11 | C[C@H]1COCCN1c1cc(C2(S(=O)(=O)c3ccccc3Cl)CC2)nc(-c2ccc(NC(=O)Nc3cnn(C)c3)cc2)n1 [Example 76f, 1-[4-[4-[1-(2-chlorophenyl)sulfonylcyclopropyl]-6-[(3S)-3-methylmorpholin-4-yl]pyrimidin-2-yl]phenyl]-3-(1-methylpyrazol-4-yl)urea] | 6.78 nM
12 | C[C@H]1COCCN1c1cc(C2(S(=O)(=O)c3ccc(C#N)cc3)CC2)nc(-c2ccc(NC(=O)NC3CC3)cc2)n1 [Example 77, 1-[4-[4-[1-(4-Cyanophenyl)sulfonylcyclopropyl]-6-[(3S)-3-methylmorpholin-4-yl]pyrimidin-2-yl]phenyl]-3-cyclopropylurea] | 8.21 nM
13 | CNC(=O)Nc1ccc(-c2nc(N3CCOC[C@@H]3C)cc(C3(S(=O)(=O)c4ccc(C#N)cc4)CC3)n2)cc1 [Example 77a, 1-[4-[4-[1-(4-cyanophenyl)sulfonylcyclopropyl]-6-[(3S)-3-methylmorpholin-4-yl]pyrimidin-2-yl]phenyl]-3-methylurea] | 5.24 nM
14 | CCNC(=O)Nc1ccc(-c2nc(N3CCOC[C@@H]3C)cc(C3(S(=O)(=O)c4ccc(C#N)cc4)CC3)n2)cc1 [Example 77b, 3-[4-[4-[1-(4-cyanophenyl)sulfonylcyclopropyl]-6-[(3S)-3-methylmorpholin-4-yl]pyrimidin-2-yl]phenyl]-1-ethylurea] | 8.6 nM
15 | C[C@H]1COCCN1c1cc(C2(S(=O)(=O)c3ccc(C#N)cc3)CC2)nc(-c2ccc(NC(=O)NCCO)cc2)n1 [Example 77c, 1-[4-[4-[1-(4-cyanophenyl)sulfonylcyclopropyl]-6-[(3S)-3-methylmorpholin-4-yl]pyrimidin-2-yl]phenyl]-3-(2-hydroxyethyl)urea] | 4.37 nM
16 | C[C@H]1COCCN1c1cc(C2(S(=O)(=O)c3ccc(C#N)cc3)CC2)nc(-c2ccc(NC(=O)NCC(F)F)cc2)n1 [Example 77d, 1-[4-[4-[1-(4-cyanophenyl)sulfonylcyclopropyl]-6-[(3S)-3-methylmorpholin-4-yl]pyrimidin-2-yl]phenyl]-3-(2,2-difluoroethyl)urea] | 10.1 nM
17 | C[C@H]1COCCN1c1cc(C2(S(=O)(=O)c3ccc(C#N)cc3)CC2)nc(-c2ccc(NC(=O)NCCF)cc2)n1 [Example 77e, 1-[4-[4-[1-(4-cyanophenyl)sulfonylcyclopropyl]-6-[(3S)-3-methylmorpholin-4-yl]pyrimidin-2-yl]phenyl]-3-(2-fluoroethyl)urea] | 5.17 nM
18 | C[C@H]1COCCN1c1cc(C2(S(=O)(=O)c3ccc(C#N)cc3)CC2)nc(-c2ccc(NC(=O)Nc3cnn(C)c3)cc2)n1 [Example 77f, 1-[4-[4-[1-(4-cyanophenyl)sulfonylcyclopropyl]-6-[(3S)-3-methylmorpholin-4-yl]pyrimidin-2-yl]phenyl]-3-(1-methylpyrazol-4-yl)urea] | 9.19 nM
19 | Cc1nc(C)c(S(=O)(=O)C2(c3cc(N4CCOC[C@@H]4C)nc(-c4ccc(NC(=O)NC5CC5)cc4)n3)CC2)s1 [Example 78, 3-Cyclopropyl-1-[4-[4-[1-[(2,4-dimethyl-1,3-thiazol-5-yl)sulfonyl]cyclopropyl]-6-[(3S)-3-methylmorpholin-4-yl]pyrimidin-2-yl]phenyl]urea] | 41.8 nM
20 | CNC(=O)Nc1ccc(-c2nc(N3CCOC[C@@H]3C)cc(C3(S(=O)(=O)c4sc(C)nc4C)CC3)n2)cc1 [Example 78a, 1-[4-[4-[1-[(2,4-dimethyl-1,3-thiazol-5-yl)sulfonyl]cyclopropyl]-6-[(3S)-3-methylmorpholin-4-yl]pyrimidin-2-yl]phenyl]-3-methylurea] | 15.3 nM
21 | CCNC(=O)Nc1ccc(-c2nc(N3CCOC[C@@H]3C)cc(C3(S(=O)(=O)c4sc(C)nc4C)CC3)n2)cc1 [Example 78b, 3-[4-[4-[1-[(2,4-dimethyl-1,3-thiazol-5-yl)sulfonyl]cyclopropyl]-6-[(3S)-3-methylmorpholin-4-yl]pyrimidin-2-yl]phenyl]-1-ethylurea] | 33.3 nM
22 | Cc1nc(C)c(S(=O)(=O)C2(c3cc(N4CCOC[C@@H]4C)nc(-c4ccc(NC(=O)NCCO)cc4)n3)CC2)s1 [Example 78c, 1-[4-[4-[1-[(2,4-dimethyl-1,3-thiazol-5-yl)sulfonyl]cyclopropyl]-6-[(3S)-3-methylmorpholin-4-yl]pyrimidin-2-yl]phenyl]-3-(2-hydroxyethyl)urea] | 20.9 nM
23 | Cc1nc(C)c(S(=O)(=O)C2(c3cc(N4CCOC[C@@H]4C)nc(-c4ccc(NC(=O)NCC(F)F)cc4)n3)CC2)s1 [Example 78d, 3-(2,2-difluoroethyl)-1-[4-[4-[1-[(2,4-dimethyl-1,3-thiazol-5-yl)sulfonyl]cyclopropyl]-6-[(3S)-3-methylmorpholin-4-yl]pyrimidin-2-yl]phenyl]urea] | 17.5 nM
24 | Cc1nc(C)c(S(=O)(=O)C2(c3cc(N4CCOC[C@@H]4C)nc(-c4ccc(NC(=O)NCCF)cc4)n3)CC2)s1 [Example 78e, 1-[4-[4-[1-[(2,4-dimethyl-1,3-thiazol-5-yl)sulfonyl]cyclopropyl]-6-[(3S)-3-methylmorpholin-4-yl]pyrimidin-2-yl]phenyl]-3-(2-fluoroethyl)urea] | 23.9 nM
25 | Cc1nc(C)c(S(=O)(=O)C2(c3cc(N4CCOC[C@@H]4C)nc(-c4ccc(NC(=O)Nc5cnn(C)c5)cc4)n3)CC2)s1 [Example 78f, 1-[4-[4-[1-[(2,4-dimethyl-1,3-thiazol-5-yl)sulfonyl]cyclopropyl]-6-[(3S)-3-methylmorpholin-4-yl]pyrimidin-2-yl]phenyl]-3-(1-methylpyrazol-4-yl)urea] | 29.1 nM
26 | C[C@H]1COCCN1c1cc(C2(S(=O)(=O)CCC(C)(C)O)CC2)nc(-c2ccc(NC(=O)NC3CC3)cc2)n1 [Example 79, 3-Cyclopropyl-1-[4-[4-[1-(3-hydroxy-3-methylbutyl)sulfonylcyclopropyl]-6-[(3S)-3-methylmorpholin-4-yl]pyrimidin-2-yl]phenyl]urea] | 18.6 nM
27 | CNC(=O)Nc1ccc(-c2nc(N3CCOC[C@@H]3C)cc(C3(S(=O)(=O)CCC(C)(C)O)CC3)n2)cc1 [Example 79a, 1-[4-[4-[1-(3-hydroxy-3-methylbutyl)sulfonylcyclopropyl]-6-[(3S)-3-methylmorpholin-4-yl]pyrimidin-2-yl]phenyl]-3-methylurea] | 22.2 nM
